# Measurements published in PubChem BioAssay AID192 (DTP/NCI, 2004).
# “And” between values parts separate entries of the source, which are not always exact repeats. Equal values may be shown once. Toxic doses and inconclusive results are not listed.
# Tested on: BDF1 mice, B16 melanoma ip, median survival T/C
# Test: NCI In Vivo Anticancer Drug Screen. Data for tumor model B16 Melanoma (intraperitoneal) in B6D2F1 (BDF1) mice
# Settings: endpoint: median survival time, higher = longer survival
# How it was run: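 Values are ratios of treated (T) to vehicle-control (C) measurements of survival or tumor size in tumor-bearing mice.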
# [1] = dose: 3.0 mg/kg/injection, schedule: Q01DX009 (ip), vehicle: Klucel (hydroxypropylcellulose) (HPC)
# [2] = dose: 6.0 mg/kg/injection, schedule: Q01DX009 (ip), vehicle: Klucel (hydroxypropylcellulose) (HPC)
# [3] = dose: 25.0 mg/kg/injection, schedule: Q01DX009 (ip), vehicle: saline
# [4] = dose: 50.0 mg/kg/injection, schedule: Q01DX009 (ip), vehicle: saline
# [5] = dose: 100.0 mg/kg/injection, schedule: Q01DX009 (ip), vehicle: saline
# [6] = dose: 200.0 mg/kg/injection, schedule: Q01DX009 (ip), vehicle: saline
# [7] = dose: 6.25 mg/kg/injection, schedule: Q01DX009 (ip), vehicle: saline
# [8] = dose: 12.5 mg/kg/injection, schedule: Q01DX009 (ip), vehicle: saline
# [9] = dose: 12.5 mg/kg/injection, schedule: Q01DX009 (ip), vehicle: saline with Tween-80
# [10] = dose: 25.0 mg/kg/injection, schedule: Q01DX009 (ip), vehicle: saline with Tween-80
# [11] = dose: 50.0 mg/kg/injection, schedule: Q01DX009 (ip), vehicle: saline with Tween-80
# [12] = dose: 100.0 mg/kg/injection, schedule: Q01DX009 (ip), vehicle: saline with Tween-80
# [13] = dose: 16.0 mg/kg/injection, schedule: Q01DX009 (ip), vehicle: saline with Tween-80
# [14] = dose: 32.0 mg/kg/injection, schedule: Q01DX009 (ip), vehicle: saline with Tween-80
# [15] = dose: 2.0 mg/kg/injection, schedule: Q01DX009 (ip), vehicle: Klucel (hydroxypropylcellulose) (HPC)
# [16] = dose: 4.0 mg/kg/injection, schedule: Q01DX009 (ip), vehicle: Klucel (hydroxypropylcellulose) (HPC)
# [17] = dose: 100.0 mg/kg/injection, schedule: Q04DX003 (ip), vehicle: saline with Tween-80
# [18] = dose: 200.0 mg/kg/injection, schedule: Q04DX003 (ip), vehicle: saline with Tween-80
# [19] = dose: 400.0 mg/kg/injection, schedule: Q04DX003 (ip), vehicle: saline with Tween-80
compound,measurement,setting,value
NC(CCl)=NCC12CC3CC(CC(C3)C1)C2,T/C,[1],110 % of control
same,T/C,"dose: 3.12 mg/kg/injection, schedule: Q01DX009 (ip), vehicle: Klucel (hydroxypropylcellulose) (HPC)",100 % of control
same,T/C,[2],100 % of control
same,T/C,"dose: 12.0 mg/kg/injection, schedule: Q01DX009 (ip), vehicle: Klucel (hydroxypropylcellulose) (HPC)",107 % of control
same,T/C,"dose: 24.0 mg/kg/injection, schedule: Q01DX009 (ip), vehicle: Klucel (hydroxypropylcellulose) (HPC)",102 % of control
same,T/C,"dose: 48.0 mg/kg/injection, schedule: Q01DX009 (ip), vehicle: Klucel (hydroxypropylcellulose) (HPC)",120 % of control
CC1(C)CC[C@H](C2=CC(=O)c3c(O)ccc(O)c3C2=O)O1,T/C,"dose: 1.25 mg/kg/injection, schedule: Q01DX009 (ip), vehicle: Klucel (hydroxypropylcellulose) (HPC)",99 % of control
same,T/C,"dose: 2.5 mg/kg/injection, schedule: Q01DX009 (ip), vehicle: Klucel (hydroxypropylcellulose) (HPC)",97 % of control
same,T/C,"dose: 5.0 mg/kg/injection, schedule: Q01DX009 (ip), vehicle: Klucel (hydroxypropylcellulose) (HPC)",97 % of control
same,T/C,"dose: 10.0 mg/kg/injection, schedule: Q01DX009 (ip), vehicle: Klucel (hydroxypropylcellulose) (HPC)",92 % of control
same,T/C,"dose: 20.0 mg/kg/injection, schedule: Q01DX009 (ip), vehicle: Klucel (hydroxypropylcellulose) (HPC)",93 % of control
N/C=N/O,T/C,[3],104 % of control
same,T/C,[4],111 % of control
same,T/C,[5],109 % of control
same,T/C,[6],117 % of control
CN(C)c1ccc2nc3ccc(=[N+](C)C)cc-3sc2c1,T/C,[7],86 % of control
same,T/C,[8],93 % of control
O=C(CCc1ccc(O)cc1)c1c(O)cc(O)cc1O,T/C,"dose: 50.0 mg/kg/injection, schedule: Q01DX009 (ip), vehicle: saline + alcohol",110 % of control
same,T/C,"dose: 100.0 mg/kg/injection, schedule: Q01DX009 (ip), vehicle: saline + alcohol",102 % of control
same,T/C,"dose: 400.0 mg/kg/injection, schedule: Q01DX009 (ip), vehicle: saline + alcohol",107 % of control
Nc1ccn([C@@H](C=O)O[C@@H](C=O)CO)c(=O)n1,T/C,[7],100 % of control and 112 % of control
same,T/C,[8],101 % of control and 102 % of control
same,T/C,[3],91 % of control and 109 % of control
same,T/C,[4],99 % of control and 103 % of control
same,T/C,[5],107 % of control and 112 % of control
same,T/C,[6],113 % of control
O=S(=O)(O)O,T/C,"dose: 6.25 mg/kg/injection, schedule: Q01DX009 (ip), vehicle: Klucel (hydroxypropylcellulose) (HPC)",111 % of control
same,T/C,"dose: 12.5 mg/kg/injection, schedule: Q01DX009 (ip), vehicle: Klucel (hydroxypropylcellulose) (HPC)",106 % of control
same,T/C,"dose: 25.0 mg/kg/injection, schedule: Q01DX009 (ip), vehicle: Klucel (hydroxypropylcellulose) (HPC)",99 % of control
same,T/C,"dose: 50.0 mg/kg/injection, schedule: Q01DX009 (ip), vehicle: Klucel (hydroxypropylcellulose) (HPC)",93 % of control
CNC(=S)N/N=C(/C)CCC/C(C)=N/NC(=S)NC,T/C,"dose: 6.25 mg/kg/injection, schedule: Q01DX009 (ip), vehicle: saline with Tween-80",94 % of control
same,T/C,[9],94 % of control
same,T/C,[10],97 % of control
Cc1ccc(S(=O)(=O)Cl)cc1Cl,T/C,[10],108 % of control
same,T/C,[11],97 % of control
same,T/C,[12],86 % of control
O=NN1CCNC1=O,T/C,"dose: 1.5 mg/kg/injection, schedule: Q01DX009 (ip), vehicle: Klucel (hydroxypropylcellulose) (HPC)",98 % of control
same,T/C,[1],110 % of control
same,T/C,[2],101 % of control
O=C(O)CC1(CC(=O)O)CCCCC1,T/C,[11],100 % of control
same,T/C,[12],98 % of control
Nc1ccn(C2OC(COP(=O)(O)O)C(O)C2O)c(=O)n1 (stereo unspecified),T/C,[13],105 % of control
same,T/C,[14],105 % of control
same,T/C,"dose: 64.0 mg/kg/injection, schedule: Q01DX009 (ip), vehicle: saline with Tween-80",115 % of control
same,T/C,"dose: 128.0 mg/kg/injection, schedule: Q01DX009 (ip), vehicle: saline with Tween-80",122 % of control
CC(C)(C)OC(=O)NC(COCc1ccccc1)C(=O)O (stereo unspecified),T/C,[11],90 % of control
same,T/C,[12],90 % of control
O=C(Nc1ccc([N+](=O)[O-])cc1)Nc1nccs1,T/C,"dose: 50.0 mg/kg/injection, schedule: Q01DX009 (ip), vehicle: distilled water + Tween-80",152 % of control
CCc1ccc(/C=C/c2ccc(O)c3ncccc23)[n+](C)c1,T/C,"dose: 4.0 mg/kg/injection, schedule: Q01DX009 (ip), vehicle: saline with Tween-80",93 % of control
same,T/C,"dose: 8.0 mg/kg/injection, schedule: Q01DX009 (ip), vehicle: saline with Tween-80",93 % of control
same,T/C,[13],102 % of control
same,T/C,[14],114 % of control
CN1C(=O)C(=Cc2ccc(O)cc2)C(=O)N(C)C1=O,T/C,[9],101 % of control
same,T/C,[10],97 % of control
Cc1cc2c(C(C)C)c(O)c(O)c(C=O)c2c(O)c1-c1c(C)cc2c(C(C)C)c(O)c(O)c(C=O)c2c1O,T/C,"dose: 0.25 mg/kg/injection, schedule: Q01DX009 (ip), vehicle: Klucel (hydroxypropylcellulose) (HPC)",93 % of control
same,T/C,"dose: 0.5 mg/kg/injection, schedule: Q01DX009 (ip), vehicle: Klucel (hydroxypropylcellulose) (HPC)",91 % of control
same,T/C,"dose: 1.0 mg/kg/injection, schedule: Q01DX009 (ip), vehicle: Klucel (hydroxypropylcellulose) (HPC)",96 % of control
same,T/C,[15],104 % of control
same,T/C,[16],91 % of control
same,T/C,"dose: 8.0 mg/kg/injection, schedule: Q01DX009 (ip), vehicle: Klucel (hydroxypropylcellulose) (HPC)",91 % of control
Cc1ccc(C(=O)C(c2ccccc2)C(Cl)c2ccccc2)cc1 (stereo unspecified),T/C,"dose: 100.0 mg/kg/injection, schedule: Q04DX003 (ip), vehicle: Klucel (hydroxypropylcellulose) (HPC)",102 % of control
same,T/C,"dose: 200.0 mg/kg/injection, schedule: Q04DX003 (ip), vehicle: Klucel (hydroxypropylcellulose) (HPC)",103 % of control
same,T/C,"dose: 400.0 mg/kg/injection, schedule: Q04DX003 (ip), vehicle: Klucel (hydroxypropylcellulose) (HPC)",103 % of control
COc1cccc(NC(=O)Nc2ccccc2)c1,T/C,"dose: 100.0 mg/kg/injection, schedule: Q01DX009 (ip), vehicle: Klucel (hydroxypropylcellulose) (HPC)",110 % of control
same,T/C,"dose: 200.0 mg/kg/injection, schedule: Q01DX009 (ip), vehicle: Klucel (hydroxypropylcellulose) (HPC)",101 % of control
same,T/C,"dose: 400.0 mg/kg/injection, schedule: Q01DX009 (ip), vehicle: Klucel (hydroxypropylcellulose) (HPC)",88 % of control
COC(=O)N1CC=CCN1C(=O)OC,T/C,[17],102 % of control
same,T/C,[18],102 % of control
same,T/C,[19],94 % of control
NC(Cc1ccc(N(CCCl)CCCl)cc1)C(=O)O (stereo unspecified),T/C,"dose: 2.0 mg/kg/injection, schedule: Q01DX009 (ip), vehicle: saline",188 % of control
same,T/C,"dose: 2.0 mg/kg/injection, schedule: Q01DX009 (ip), vehicle: water",118 % of control
same,T/C,"dose: 4.0 mg/kg/injection, schedule: Q01DX009 (ip), vehicle: water",272 % of control
same,T/C,"dose: 8.0 mg/kg/injection, schedule: Q01DX009 (ip), vehicle: water",172 % of control
C[C@H]1CN1C1=CC(=O)C(N2C[C@@H]2C)=CC1=O,T/C,"dose: 0.5 mg/kg/injection, schedule: Q01DX009 (ip), vehicle: saline with Tween-80",102 % of control
same,T/C,"dose: 1.0 mg/kg/injection, schedule: Q01DX009 (ip), vehicle: saline with Tween-80",106 % of control
same,T/C,[15],123 % of control
same,T/C,[16],115 % of control
OC1CCCC2CCCNC12 (stereo unspecified) (tested in a mixture with another compound),T/C,[10],90 % of control
same,T/C,[11],95 % of control
same,T/C,[12],86 % of control
Cc1c2ccccc2cc2cc[n+]3ccccc3c12,T/C,"dose: 3.75 mg/kg/injection, schedule: Q01DX009 (ip), vehicle: Klucel (hydroxypropylcellulose) (HPC)",98 % of control
same,T/C,"dose: 7.5 mg/kg/injection, schedule: Q01DX009 (ip), vehicle: Klucel (hydroxypropylcellulose) (HPC)",98 % of control
same,T/C,"dose: 15.0 mg/kg/injection, schedule: Q01DX009 (ip), vehicle: Klucel (hydroxypropylcellulose) (HPC)",102 % of control
Nc1c([N+](=O)[O-])ccc2ccccc12,T/C,[17],108 % of control
same,T/C,[18],91 % of control
same,T/C,[19],100 % of control
